The results in this text go back to US10273218B2, “BCL-3 inhibitors” (University College Cardiff Consultants Limited, priority 2014, dated 2019).

Molecules are shown by their SMILES.

The test system of test [1] is MDA-MB-436 cells (triple negative breast invasive ductal carcinoma). In words: mouse Model 4 (tumour growth at transplantation site), MDA-MB-436. The format is in vivo, mice. The following applies: 3.5 mg/kg in 1% DMSO intraperitoneal daily; MDA-MB-436 subcutaneous; caliper tumour volume. On the procedure:
Another model (Model 4) studied the effect of the compound's ability to inhibit the growth of tumour cells at the transplantation site. Human tumour cell lines were injected subcutaneously into recipient mice, followed 2 days later by single daily intraperitoneal injections of a compound (3.5 mg/kg in 1% DMSO) for the entire course of the experiment. Tumour burden was monitored longitudinally for up to 12 weeks in vivo by palpation and caliper measurements of tumour volume, and subsequently histology performed on tumours at the end of the experiment.
Model 4 tested the effect of compounds of the application to inhibit the growth of tumour cells at the transplantation site. MDA-MB-436 cells were injected subcutaneously into recipient mice, followed 2 days later by single daily intraperitoneal injections of compound 12 (3.5 mg/kg in 1% DMSO) for the entire course of the experiment. Tumour burden was monitored longitudinally for up to 12 weeks in vivo by palpation and caliper measurements of tumour volume, and subsequently histology performed on tumours at the end of the experiment.

The test system of test [2] is MDA-MB-231 human breast cancer cells. In words: mouse Model 2 (colonization, growth and spread of secondary lesions at distal sites). The format is in vivo, mice. As to conditions: 3.5 mg/kg intraperitoneally daily. The method, then:
(§1) In all experiments, each compound was administered by intraperitoneally at 3.5 mg/kg.
Another model (Model 2) tested the effect of the compound's ability to inhibit the colonization and subsequent growth and spread of secondary lesions at distal sites. Human tumour cell lines were injected into the bloodstream of recipient mice, followed 2 days later by single daily intraperitoneal injections of the compound (3.5 mg/kg in 1% DMSO) for the entire course of the experiment. Tumour burden was monitored longitudinally for up to 8 weeks in vivo by live luminescence imaging, and subsequently histology performed on affected organs at the end of the experiment.
(§2) MDA-MB-231 human breast cancer cells were used in each of the three xenograft models of metastatic breast cancer.

Test [3] relates to human breast cancer MDA-MB-231 xenograft. Put plainly: in vivo metastasis mouse Model 1 (seeding and early colonization of circulating tumour cells). Also on record: species or system mice. As to conditions: 3.5 mg/kg intraperitoneally daily; MDA-MB-231. On the procedure:
as §1
One model (Model 1) studied the effect of the compound's ability to inhibit the seeding and early colonization of circulating tumour cells at distal sites, most commonly in the lungs and liver. Human tumour cell lines were injected into the bloodstream of recipient mice, followed by single daily intraperitoneal injections of the compound (3.5 mg/kg in 1% DMSO) for 10 consecutive days. Tumour burden was monitored longitudinally for up to 8 weeks in vivo by live luminescence imaging, and subsequently histology performed on affected organs at the end of the experiment.
Model 1 tested the effect of Bcl3i compounds to inhibit the seeding and early colonization of circulating tumour cells at distal sites, most commonly in the lungs and liver. Human tumour cell lines were injected into the bloodstream of recipient mice, followed by single daily intraperitoneal injections of Bcl3 inhibitor (3.5 mg/kg in 1% DMSO) for 10 consecutive days. Tumour burden was monitored longitudinally for up to 8 weeks in vivo by live luminescence imaging, and subsequently histology performed on affected organs at the end of the experiment.
The X axis represents the number of days after xenograft and the Y axis is the relative luminescence of the thoracic region by Xenon IVIS scanning of mice following injection of d-luciferin for 10 minutes.
as §2

The subject of test [4] is NF-κB activity in MDA-MB-231 cells. Put plainly: NF-kB luciferase assay, EGF-induced NF-kB activity. It is filed as cell-based, human. As to conditions: 1 micromolar, 20 hours, then 100 ng/ml EGF for 3 hours. The method, then:
MDA-MB-231 is a highly metastatic, human basal epithelial cell line isolated from the pleural effusion of an adenocarcinoma. The cells are ‘triple negative’ as they lack estrogen, progesterone and ERBB2 receptor and they strongly over-express EGFR. The expression of receptors in this line has been confirmed by the host laboratory.
For NF-κB luciferase assays, cells are seeded into clear bottom black 96-well plates (Corning Inc., Lowell, US) in antibiotic free culture media in appropriate density. After about 20-24 hrs, cells are transfected with 10 ng of 3×κB luciferase plasmid and 10 ng of pcDNA3.1-Lacl plasmid per well. […]
After 48 hrs post-transfection with luciferase reporter plasmid, the media is aspirated and cells are lyzed using 50 μl/well of Glo-lysis buffer (Promega, Southampton, UK). […] Subsequently, 30 μl/well of Bright-Glo luciferase substrate (Promega, Southampton, UK) is added to the original plate and is assayed immediately for luminescence activity. The luminescence produced from either reaction is read using a Fluorostar Optima plate reader (BMG tabtech, Bucks, UK). […]
After 48 hrs post-transfection with luciferase reporter plasmid, the media was aspirated and cells were lyzed using 50 μl/well of Glo-lysis buffer (Promega, Southampton, UK). […] The luminescence produced from either reaction was read using a Flurostar Optima plate reader (BMG tabtech, Bucks, UK). […]

On to `COc1ccc(C(=O)Nc2ccccc2C(=O)NCCN2CCOCC2)c(F)c1` [Compound 12, 2-fluoro-4-methoxy-N-(2-((2-morpholinoethyl)carbamoyl)phenyl) benzamide], for which the “average tumour growth at the transplantation site” value in test [1] is “significant reductions in average tumour growth”. Also, the “effect on subsequent growth and spread of the secondary tumours (FIG. 9)” value in test [2] was “significant effects”. The “effect on tumour cell seeding at distal sites (FIG. 8)” value in test [3] was “most profound effect”. For the same molecule, in test [4], the “greater suppression of NF-kB activity as compared to reference compound A” value is 25%. Also, the “suppression of EGF induced NF-kB activity” value in test [4] (MDA-MB-231 NF-kB promoter luciferase reporter) is 100%.
